# From PMC3024946, “Hydroxyproline-containing collagen analogs trigger the release and activation of collagen-sequestered proMMP-2 by competition with prodomain-derived peptide P33-42” (Fibrogenesis & Tissue Repair, 2011)
# “Also recorded” adds a separate entry of the source.
# Molecular target: T1, proMMP-2 / CI (Homo sapiens, UniProt P08253)
# T1 construct: prodomain-containing proMMP-2 or proMMP-9; purchased Invitek
# T1 sequence (P08253 30-660 limits assumed): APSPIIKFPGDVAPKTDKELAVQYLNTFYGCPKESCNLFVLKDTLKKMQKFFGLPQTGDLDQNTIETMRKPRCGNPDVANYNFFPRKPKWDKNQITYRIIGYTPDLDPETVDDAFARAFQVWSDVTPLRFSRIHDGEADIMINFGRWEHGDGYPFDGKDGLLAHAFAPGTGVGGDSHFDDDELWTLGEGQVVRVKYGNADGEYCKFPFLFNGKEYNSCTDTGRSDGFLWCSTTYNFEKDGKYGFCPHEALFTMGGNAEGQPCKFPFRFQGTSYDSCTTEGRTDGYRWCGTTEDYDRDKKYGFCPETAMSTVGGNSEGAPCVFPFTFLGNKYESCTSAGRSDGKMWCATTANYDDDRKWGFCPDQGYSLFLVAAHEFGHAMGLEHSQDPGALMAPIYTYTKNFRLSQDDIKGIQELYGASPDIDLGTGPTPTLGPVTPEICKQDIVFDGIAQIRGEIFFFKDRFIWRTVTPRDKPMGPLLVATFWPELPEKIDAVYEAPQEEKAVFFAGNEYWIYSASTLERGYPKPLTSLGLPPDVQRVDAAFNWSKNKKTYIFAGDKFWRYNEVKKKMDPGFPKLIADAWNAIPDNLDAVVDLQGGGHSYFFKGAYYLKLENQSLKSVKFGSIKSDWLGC
# Assay: SPR, competition of proMMP-2 binding to CI, MMP activity buffer with Ro 28-2653
# Details: for competition with proMMP-2 binding to CI: SPR, MMP activity buffer with Ro 28-2653; for Kd for binding to CI in the presence of 10-fold molar excess of competitor: proMMP-2 100 nM, MMP activity buffer, 1 μM Ro 28-2653, 25°C, mean ± SD, at least three experiments
# Experimental: Sensor chip preparations and SPR measurements were performed using a BiacoreX device and the Bia-evaluation software (version 3.2; Biacore, Uppsala, Sweden). The pepsin-resistant triple-helical part of human fibrillar CI (100 μg/ml) in 10 mM acetate coupling buffer, pH 4.8, was immobilized to a dextran matrix-sensor chip at a flow rate of 5 μl/min, resulting in 5,500 resonance units from CI covalently linked via its primary amino groups. The control flow cell was prepared using the coupling buffer without CI. Surfaces were activated and blocked as described previously. Immediately after thawing, pro- and actMMP-2 and pro- and actMMP-9 were diluted to 100 to 250 nM in MMP activity buffer or in PBS and 0.05% (vol/vol) Tween 20. For SPR measurements, flow rates were 10 μl/min at 25°C, and equilibrium was typically reached after 30 to 60 s. The effects of (GPO)10, GAP, (POG)5, (GPP)10 and P33-42 on MMP-2 and MMP-9 binding to CI and their enzymatic activity were determined by adding the binding competitors to the (pro- and act)MMP-2 and MMP-9 solution in 10- to 150-fold molar excesses. Effects independent of MMP-2 and MMP-9 activity were monitored in the presence of Ro 28-2653 (1 μM) during SPR analysis. The gelatinase inhibitor Ro 28-2653 was a generous gift from H.-W. Krell (Roche, Grenzach-Wyhlen, Germany). Sensor surfaces were regenerated with 10 mM glycine, pH 2.3, for 1 min between runs, and sensor chips were used up to 25 times. Kinetic parameters were analyzed using the 1:1 binding model with drifting baseline and subtraction of the control flow cell binding from sensorgrams obtained with immobilized CI. Binding constants (Kd) were calculated from the association (ka) and dissociation rates (kd) obtained from individual binding curves at different concentrations. Individual drifts of the resonance signal were fitted locally, and χ^2 values of 0.2% to 1.0% of the maximum resonance value were considered good fits.
Substance,competition with proMMP-2 binding to CI,Kd for binding to CI in the presence of 10-fold molar excess of competitor [nM],"reduction of affinity / increase in Kd of binding to CI (proMMP-2, 10-fold molar excess of competitor)"
"H-Gly-Cys-Hyp-(Gly-Pro-Hyp)10-Gly-Cys-Hyp-Gly-NH2 [(GPO)10, triple-helical Hyp-containing collagen analog]",comparable to that of (POG)5; also recorded: effectively compete proMMP-2 binding to CI,155.5 ± 50.2,–
"H-Gly-Cys-Pro-(Gly-Pro-Pro)10-Gly-Cys-Pro-Gly-NH2 [(GPP)10, Triple-helical Gly-Pro-Pro (GPP)10, devoid of Hyp]",much less efficient in competing with proMMP-2 binding to CI than the nonhelical (POG)5,42.1 ± 39.1,about a sixfold increase
